Source: patent US9981928B2, “Aryl sulfide derivatives and aryl sulfoxide derivatives as acaricides and insecticides” (BAYER CROPSCIENCE AKTIENGESELLSCHAFT, priority 2013, dated 2018)
Where two headings read alike, the source gives them in different places.

Experiments:
[1] = tested on: greenhouse red spider mite (Tetranychus urticae); experiment: Tetranychus urticae spray test, OP-resistant (TETRUR), bean leaf disks; type: in vivo; settings: for pest or weed control at 500 g/ha: Tetranychus urticae, foliar, 144 h, read-out: efficacy in %
Description: Tetranychus urticae—Spray Test, OP-Resistant (TETRUR)
Solvent: 78.0 parts by weight of acetone
• 1.5 parts by weight of dimethylformamide Emulsifier: alkylaryl polyglycol ether
To produce a suitable preparation of active compound, 1 part by weight of active compound is dissolved using the stated parts by weight of solvent and made up with water containing an emulsifier concentration of 1000 ppm until the desired concentration is attained. To produce further test concentrations, the preparation is diluted with emulsifier-containing water.
disks of bean leaves (Phaseolus vulgaris) infested with all stages of the greenhouse red spider mite (Tetranychus urticae) are sprayed with an active compound preparation of the desired concentration.
After 6 days, the efficacy in % is determined. 100% means that all the spider mites have been killed; 0% means that none of the spider mites have been killed.

[2] = log P determination by HPLC on reversed-phase columns (C 18), analogously to OECD Guideline 117; type: physicochemical; settings: for logP (HCOOH): LC-MS in the acidic range, pH 2.7, 0.1% aqueous formic acid / acetonitrile; for logP (HCOOH) / logP (neutral): HPLC reversed-phase C 18; for logP (neutral): LC-MS in the neutral range, pH 7.8, 0.001 molar aqueous ammonium hydrogencarbonate / acetonitrile
Description: The log P values were determined analogously to OECD Guideline 117 (EC Directive 92/69/EEC) by HPLC (high-performance liquid chromatography) using reversed-phase columns (C 18), by the following methods:
[a] The LC-MS determination in the acidic range was effected at pH 2.7 with 0.1% aqueous formic acid and acetonitrile (contains 0.1% formic acid) as eluents; linear gradient from 10% acetonitrile to 95% acetonitrile. log P^[a] is also referred to as log P(HCOOH). [b] LC-MS determination in the neutral range was effected at pH 7.8 with 0.001 molar aqueous ammonium hydrogencarbonate solution and acetonitrile as eluents; linear gradient from 10% acetonitrile to 95% acetonitrile. log P^[…] is also referred to as log P(neutral).

[3] = bean leaf disks, application rate 500 g/ha, after 6 days
[4] = reversed-phase C18 HPLC column, acidic range, pH 2.7, 0.1% aqueous formic acid and acetonitrile, read-out: log P[a] / log P(HCOOH)
[5] = reversed-phase C18 HPLC column, neutral range, pH 7.8, 0.001 molar aqueous ammonium hydrogencarbonate and acetonitrile, read-out: log P[b] / log P(neutral)

| chromatographic logP [2, 4] | chromatographic logP [2, 5] | SMILES | other results |
| --- | --- | --- | --- |
|  |  | Cc1cc(F)c(N2C(=O)CSC2=NCC(C)(C)C)cc1[S+]([O-])CC(F)(F)F (racemic) [Example 114] | efficacy in % [1, 3]: 90%; logP (HCOOH) [2]: 3.66; logP (neutral) [2]: 3.63 |
|  |  | C=CCn1c(=O)n(-c2cc([S+]([O-])CC(F)(F)F)c(C)cc2F)c(=O)n1CC=C (racemic) [Example 120] | efficacy in % [1, 3]: 90%; logP (HCOOH) [2]: 2.46 |
|  |  | C#CCn1c(=O)n(-c2cc([S+]([O-])CC(F)(F)F)c(C)cc2F)c(=O)n1C (racemic) [Example 123] | efficacy in % [1, 3]: 100%; logP (HCOOH) [2]: 1.96 |
|  |  | C=CCn1c(=O)n(-c2cc([S+]([O-])CC(F)(F)F)c(C)cc2F)c(=O)n1C (racemic) [Example 124] | efficacy in % [1, 3]: 100%; logP (HCOOH) [2]: 2.00 |
|  |  | Cc1cc(F)c(N2CCN(C)C2=O)cc1[S+]([O-])CC(F)(F)F (racemic) [Example 199] | efficacy in % [1, 3]: 100%; logP (HCOOH) [2]: 1.76; logP (neutral) [2]: 1.74 |
|  |  | C=CCN1CC(=O)N(c2cc([S+]([O-])CC(F)(F)F)c(C)cc2F)C1=O (racemic) [Example 201] | efficacy in % [1, 3]: 100%; logP (HCOOH) [2]: 2.02; logP (neutral) [2]: 1.99 |
|  |  | Cc1cc(F)c(-n2c(=O)n(C3CC3)c(=O)n2C)cc1[S+]([O-])CC(F)(F)F (single isomer, unassigned) [Example 151] | efficacy in % [1, 3]: 90%; logP (HCOOH) [2]: 1.98; logP (neutral) [2]: 1.88 |
| 1.02 | 2.88 | Cc1cc(F)c(N2CCCC2=NCC(F)(F)F)cc1[S+]([O-])CC(F)(F)F (centres unmarked) [Example 3, 2,2,2-Trifluoro-N-(1-{2-fluoro-4-methyl-5-[(2,2,2-trifluoroethyl)sulfinyl]phenyl}pyrrolidin-2-ylidene)ethanamine] | pest or weed control at 500 g/ha [1, 3]: 90% |
| 1.68 | 4.24 | Cc1cc(F)c(N2CCCC2=NCC(F)(F)F)cc1SCC(F)(F)F [Example 6, 2,2,2-Trifluoro-N-(1-[2-fluoro-4-methyl-5-[(2,2,2-trifluoroethyl)sulfanyl]phenyl]pyrrolidin-2-ylidene)ethanamine] | pest or weed control at 500 g/ha [1, 3]: 90% |
| 2.61 | 2.52 | OB(O)c1cc(SCC(F)(F)F)c(Cl)cc1Cl [VIIIa-6, {2,4-Dichloro-5-[(2,2,2-trifluoroethyl)sulfanyl]phenyl}boronic acid] |  |
| 1.94 | 1.93 | COc1ccc(B(O)O)cc1SCC(F)(F)F [VIIIa-8, {4-Methoxy-3-[(2,2,2-trifluoroethyl)sulfanyl]phenyl}boronic acid] |  |
| 2.58 | 2.57 | Cc1cc(C)c(B(O)O)cc1SCC(F)(F)F [VIIIa-11, {2,4-Dimethyl-5-[(2,2,2-trifluoroethyl)sulfanyl]phenyl}boronic acid] |  |
| 1.74 | 1.68 | [O-][S+](CC(F)(F)F)c1cc(B(O)O)ccc1Cl (centres unmarked) [VIIIb-3, {4-Chloro-3-[(2,2,2-trifluoroethyl)sulfinyl]phenyl}boronic acid] |  |
| 1.86 | 1.51 | [O-][S+](CC(F)(F)F)c1cc(B(O)O)c(Cl)cc1Cl (centres unmarked) [VIIIb-6, {2,4-Dichloro-5-[(2,2,2-trifluoroethyl)sulfinyl]phenyl}boronic acid] |  |
| 1.36 | 1.37 | COc1ccc(B(O)O)cc1[S+]([O-])CC(F)(F)F (centres unmarked) [VIIIb-8] |  |
| 1.61 | 1.61 | Cc1cc(C)c([S+]([O-])CC(F)(F)F)cc1B(O)O (centres unmarked) [VIIIb-11, {2,4-Dimethyl-5-[(2,2,2-trifluoroethyl)sulfinyl]phenyl}boronic acid] |  |
| 4.28 | 4.29 | Fc1cc(Cl)c(SCC(F)(F)F)cc1Br [VIIa-2, 1-Bromo-4-chloro-2-fluoro-5-[(2,2,2-trifluoroethyl)sulfanyl]benzene] |  |
| 4.29 | 4.25 | FC(F)(F)CSc1cc(Br)ccc1Br [VIIa-13, 1,4-Dibromo-2-[(2,2,2-trifluoroethyl)sulfanyl]benzene] |  |

| chromatographic logP [2, 4] | chromatographic logP [2, 5] | SMILES | other results |
| --- | --- | --- | --- |
| 4.39 | 4.36 | Fc1cc(Br)c(SCC(F)(F)F)cc1Br [VIIa-14, 1,4-Dibromo-2-fluoro-5-[(2,2,2-trifluoroethyl)sulfanyl]benzene] |  |
| 3.89 | 3.86 | Fc1cc(F)c(SCC(F)(F)F)cc1Br [VIIa-15, 1-Bromo-2,4-difluoro-5-[(2,2,2-trifluoroethyl)sulfanyl]benzene] |  |
|  |  | O=[N+]([O-])c1ccc(Cl)c(SSc2cc([N+](=O)[O-])ccc2Cl)c1 [XIX-3, 1,1′-Disulfanediylbis(2-chloro-5-nitrobenzene)] | chromatographic logP ([2]; acidic range, pH 2.7, 0.1% aqueous formic acid and acetonitrile, read-out: log P[a] / log P(HCOOH)): 3.31; chromatographic logP ([2]; neutral range, pH 7.8, 0.001 molar aqueous ammonium hydrogencarbonate and acetonitrile, read-out: log P[b] / log P(neutral)): 3.35 |
| 1.15 |  | CCn1[nH]c(=O)n(C(C)(C)C)c1=O [drawing 120 R1=CH2CH3 R10=C(CH3)3, 4-tert-butyl-1-ethyl-1,2,4-triazolidine-3,5-dione] |  |
| 0.62 |  | CCn1[nH]c(=O)n(C(C)C)c1=O [drawing 120 R1=CH2CH3 R10=CH(CH3)2, 1-ethyl-4-isopropyl-1,2,4-triazolidine-3,5-dione] |  |
| 0.94 |  | CC(C)Cn1[nH]c(=O)n(C2CC2)c1=O [drawing 120 R1=CH2CH(CH3)2 R10=cyclopropyl, 4-cyclopropyl-1-isobutyl-1,2,4-triazolidine-3,5-dione] |  |
| 0.83 |  | Cn1[nH]c(=O)n(C(C)(C)C)c1=O [drawing 120 R1=CH3 R10=C(CH3)3, 4-tert-butyl-1-methyl-1,2,4-triazolidine-3,5-dione] |  |
| 0.27 |  | CC(C)n1c(=O)[nH]n(C)c1=O [drawing 120 R1=CH3 R10=CH(CH3)2, 4-isopropyl-1-methyl-1,2,4-triazolidine-3,5-dione] |  |
| 0.12 |  | CC(C)n1[nH]c(=O)n(C)c1=O [drawing 120 R1=CH(CH3)2 R10=CH3, 1-isopropyl-4-methyl-1,2,4-triazolidine-3,5-dione] |  |
| 0.5 |  | CC(C)n1[nH]c(=O)n(C2CC2)c1=O [drawing 120 R1=CH(CH3)2 R10=cyclopropyl, 4-cyclopropyl-1-isopropyl-1,2,4-triazolidine-3,5-dione] |  |
| 0.82 |  | CCC(C)n1[nH]c(=O)n(C2CC2)c1=O (centres unmarked) [drawing 120 R1=CH(CH3)CH2CH3 R10=cyclopropyl, 1-sec-butyl-4-cyclopropyl-1,2,4-triazolidine-3,5-dione] |  |
| 1.21 |  | O=c1[nH]n(Cc2ccccc2)c(=O)n1C1CC1 [drawing 120 R1=benzyl R10=cyclopropyl, 1-benzyl-4-cyclopropyl-1,2,4-triazolidine-3,5-dione] |  |
| 0.78 |  | Cn1c(=O)[nH]n(C2CCCC2)c1=O [drawing 120 R1=cyclopentyl R10=CH3, 1-cyclopentyl-4-methyl-1,2,4-triazolidine-3,5-dione] |  |
| 1.66 | 1.63 | Cn1c(OCc2ccccc2Cl)n[nH]c1=O [drawing 121 R1=2-chlorobenzyl R10=CH3, 5-[(2-chlorobenzyl)oxy]-4-methyl-2,4-dihydro-3H-1,2,4-triazol-3-one] |  |
| 0.84 | 0.88 | Cn1c(OCC2CC2)n[nH]c1=O [drawing 121 R1=CH2-cyclopropyl R10=CH3, 5-(cyclopropylmethoxy)-4-methyl-2,4-dihydro-3H-1,2,4-triazol-3-one] |  |
| 1 | 1.03 | C=CCOc1n[nH]c(=O)n1C1CC1 [drawing 121 R1=CH2CH═CH2 R10=cyclopropyl, 5-(allyloxy)-4-cyclopropyl-2,4-dihydro-3H-1,2,4-triazol-3-one] |  |
| 0.45 | 0.47 | C=CCn1c(OC)n[nH]c1=O [drawing 121 R1=CH3 R10=CH2CH═CH2, 4-allyl-5-methoxy-2,4-dihydro-3H-1,2,4-triazol-3-one] |  |
| 0.27 | 0.31 | COc1n[nH]c(=O)n1C1CC1 [drawing 121 R1=CH3 R10=cyclopropyl, 4-cyclopropyl-5-methoxy-2,4-dihydro-3H-1,2,4-triazol-3-one] |  |

| SMILES | chromatographic logP [2, 4] | chromatographic logP [2, 5] | other results |
| --- | --- | --- | --- |
| Cc1cc(C)c(N2CCNC2=O)cc1SCC(F)(F)F [Example 1, 1-{2,4-Dimethyl-5-[(2,2,2-trifluoroethyl)sulfanyl]phenyl}imidazolidin-2-one] | 2.43 | 2.39 | pest or weed control at 500 g/ha [1]: 90% |
